Laboratory results reported in ChEMBL document CHEMBL4043107, “Stable C-N axial chirality in 1-aryluracil scaffold and differences in in vitro metabolic clearance between atropisomers of PDE4 inhibitor” (Bioorg Med Chem, 2017).
pIC50: −log10 of the molar value. “And” between values parts separate entries of the source, which are not always exact repeats. Equal entries are not always repeated.

Biological target: 3',5'-cyclic-AMP phosphodiesterase 4A (Homo sapiens, UniProt P27815)
Test: Inhibition of human full length recombinant PDE4A1A using FAM-cAMP as substrate after 30 mins by fluorescence based spectrophotometric method

Chain of 3',5'-cyclic-AMP phosphodiesterase 4A (P27815 whole entry): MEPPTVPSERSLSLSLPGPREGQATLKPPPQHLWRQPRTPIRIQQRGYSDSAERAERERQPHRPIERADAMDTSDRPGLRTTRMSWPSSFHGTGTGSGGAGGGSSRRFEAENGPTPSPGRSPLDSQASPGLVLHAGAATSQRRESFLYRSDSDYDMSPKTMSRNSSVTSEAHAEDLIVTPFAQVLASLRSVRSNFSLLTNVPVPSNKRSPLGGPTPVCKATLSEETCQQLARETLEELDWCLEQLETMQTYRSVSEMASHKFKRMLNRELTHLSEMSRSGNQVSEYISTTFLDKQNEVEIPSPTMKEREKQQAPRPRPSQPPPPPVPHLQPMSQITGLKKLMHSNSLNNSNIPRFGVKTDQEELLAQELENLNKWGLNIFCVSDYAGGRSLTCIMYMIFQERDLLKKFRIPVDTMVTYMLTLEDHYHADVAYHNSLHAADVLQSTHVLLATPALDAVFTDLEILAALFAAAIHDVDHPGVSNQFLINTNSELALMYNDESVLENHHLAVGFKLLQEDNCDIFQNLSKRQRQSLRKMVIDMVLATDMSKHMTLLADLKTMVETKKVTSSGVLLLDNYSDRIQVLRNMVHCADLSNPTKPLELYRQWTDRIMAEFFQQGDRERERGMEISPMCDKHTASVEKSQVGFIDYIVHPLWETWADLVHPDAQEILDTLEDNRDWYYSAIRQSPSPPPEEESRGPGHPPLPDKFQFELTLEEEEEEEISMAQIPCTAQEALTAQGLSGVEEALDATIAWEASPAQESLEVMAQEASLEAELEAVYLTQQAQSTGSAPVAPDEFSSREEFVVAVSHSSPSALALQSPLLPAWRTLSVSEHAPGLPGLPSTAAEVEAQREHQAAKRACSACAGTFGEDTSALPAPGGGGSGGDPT

**Q.** How did the pIC50 turn out when `CCCn1c(=O)c2ccc(N)nc2n(-c2cc(OC)ccc2OC)c1=O` was run?
**A.** 4.15 and 3.90
